According to ChEMBL document CHEMBL1147242, “Briarlides, briarane diterpenes from a gorgonian Briareum sp” (J Nat Prod, 2003):
Converted amounts (≈) assume the structure as drawn.

Columns and labels:
[1] = Cytotoxicity against african green monkey Vero cells; type: cell-based; conditions: chlorocebus sabaeus
[2] = Cytotoxicity against MDCK cells; type: cell-based, Canis lupus familiaris; conditions: dog

Compound | CC50 [1] [µg/mL] | CC50 [2] [µg/mL]
CC(=O)O[C@@H]1[C@H]2[C@](C)(O)[C@H](OC(C)=O)C=C[C@]2(C)[C@@H](O)[C@H](O)[C@@H](OC(C)=O)/C(C)=C\[C@@H]2OC(=O)[C@]3(C)O[C@@]213 [BRIARLIDE C] | 62.1 (≈ 115 µM) | 38.6 (≈ 71.7 µM)
CC(=O)O[C@@H]1[C@H]2[C@](C)(O)[C@H](OC(C)=O)C=C[C@]2(C)[C@@H](OC(C)=O)[C@H](O)[C@@H](OC(C)=O)/C(C)=C\[C@@H]2OC(=O)[C@]3(C)O[C@@]213 [BRIARLIDE B] | 18.9 (≈ 32.6 µM) | 15.4 (≈ 26.5 µM)
CCCCCC(=O)O[C@H]1/C(C)=C\[C@@H]2OC(=O)[C@]3(C)O[C@]23[C@H](OC(C)=O)[C@H]2[C@](C)(O)[C@H](OC(C)=O)C=C[C@]2(C)[C@@H](OC(C)=O)[C@@H]1O [BRIARLIDE E] | 4.24 (≈ 6.66 µM) | 4.91 (≈ 7.71 µM)
CCCCCCCC(=O)O[C@H]1/C(C)=C\[C@@H]2OC(=O)[C@]3(C)O[C@]23[C@H](OC(C)=O)[C@H]2[C@](C)(O)[C@H](OC(C)=O)C=C[C@]2(C)[C@@H](OC(C)=O)[C@@H]1O [BRIARLIDE D] | 2.26 (≈ 3.4 µM) | 2.49 (≈ 3.75 µM)
CC(=O)O[C@@H]1[C@@H](OC(C)=O)/C(C)=C\[C@@H]2OC(=O)[C@]3(C)O[C@]23[C@H](OC(C)=O)[C@H]2[C@](C)(O)[C@H](O)C=C[C@]2(C)[C@H]1OC(C)=O [VIOLIDE B] | 9.8 (≈ 16.9 µM) | 28.8 (≈ 49.6 µM)
CC(=O)O[C@@H]1[C@@H](OC(C)=O)/C(C)=C\[C@@H]2OC(=O)[C@]3(C)O[C@]23[C@H](OC(C)=O)[C@H]2[C@](C)(O)[C@H](OC(C)=O)C=C[C@]2(C)[C@H]1OC(C)=O [BRIARLIDE A] | 2.07 (≈ 3.32 µM) | 4.74 (≈ 7.61 µM)
CC(=O)O[C@@H]1[C@H]2[C@](C)(O)[C@H](O)C=C[C@]2(C)[C@@H](O)[C@H](OC(C)=O)C/C(C)=C\[C@@H]2OC(=O)[C@]3(C)O[C@@]213 [BRIARLIDE H] | > 100 | > 100
CCCCCCCC(=O)O[C@@H]1[C@@H](O)/C(C)=C\[C@@H]2OC(=O)[C@]3(C)O[C@]23[C@H](OC(C)=O)[C@H]2[C@](C)(O)[C@H](OC(C)=O)C=C[C@]2(C)[C@H]1OC(C)=O [BRIARLIDE F] | 4.26 (≈ 6.41 µM) | 3.49 (≈ 5.25 µM)
CC(=O)O[C@@H]1[C@H]2[C@](C)(O)[C@H](OC(C)=O)C=C[C@]2(C)[C@@H](OC(C)=O)[C@H](OC(C)=O)C/C(C)=C\[C@@H]2OC(=O)[C@]3(C)O[C@@]213 [BRIARLIDE G] | 22.2 (≈ 39.3 µM) | 67.1 (≈ 119 µM)
